Test results published in US12306164B2, “Therapeutic drug for lipid-peroxidation-induced diseases and screening method for therapeutic drugs for lipid-peroxidation-induced diseases” (FUSO PHARMACEUTICAL INDUSTRIES, LTD., priority 2017, dated 2025).
Where a name gives a salt, the structure may show the parent alone.

Assays:
[1] = system: HepG2 cells; assay: Tertiary screening, Core Library (NBD-TEEPO assay); assay type: cell-based, human; conditions: 50 μM compound, 200 μM AA or 300 μM tBHP
Description: The Core Library of Drug Discovery Initiative, the University of Tokyo, includes structural analogs for each compound. Then, secondary screening was also performed for structural analog compounds for each candidate compound in the same manner as Example 13 and the activity values were evaluated.
Specifically, the nine hit compounds, Compound Nos. 7, 19, 39, 48, 52, 64, 73, 78, 80, of the secondary screening had 5, 2, 4, 6, 6, 5, 5, 10, 2 structural analogs, respectively, thus, a total 45 structural analogs were taken. Then, including the original 9 compounds, a total 54 compounds were subjected to tertiary screening, and the activity values were calculated in the same manner.
(§1) For the evaluation of cytotoxicity, 50 μM antioxidant was added to HepG2 cells in DMEM medium (0.5% DMSO), and after incubation at 37° C. for 72 hours, the cell viability was measured. • 4) The activity values of the two-added systems in each of the assay using NBD-TEEPO and the MTT assay were plotted (FIG. 15C and FIG. 16C).

[2] = system: HepG2 cells; assay: Cytotoxicity evaluation at tertiary screening (MTT, compound alone); assay type: cell-based; conditions: 50 μM compound alone, 72 hours
Description: To 1.0×10^4 HepG2 cells, 50 μM compound were added, and cell viability after 72 hours was measured by an MTT assay.
as §1

[3] = system: HepG2 cells; assay: Secondary screening, Core Library (NBD-TEEPO assay); assay type: cell-based, human; conditions: 50 μM compound, 200 μM AA (45 minutes) or 300 μM tBHP (60 minutes); high activity values in both systems
Description: In the screening by the cell-based assay method, activity values were determined from the values of fluorescence intensity measured in each screening using AA or tBHP as a reaction initiator, based on the following expression: Activity value=100(AUCSample−AUCBackground)/(AUCControl−AUCBackground) • AUCSample: Area under the curve calculated from the fluorescence intensity for with reaction initiator and with each compound (n=1) • AUCControl: Area under the curve calculated from fluorescence intensity for with reaction initiator and without each compound • AUCBackground: Area under the curve calculated from fluorescence intensity for without reaction initiator and without each compound
For the compounds, 10 mM 100% DMSO solutions (dispensed at 5.0 µL/well) were provided from Drug Discovery Initiative, the University of Tokyo. 495 μL of DMEM medium for measurement was added, and a 1.0% DMSO solution containing 100 μM of the compound was prepared. This solution was dispensed by 80 μL with Biomek NXP into a measuring plate on which cells were seeded in advance. To the test compound (100 μM 1.0% DMSO), 64 μL of DMEM medium (1.25% acetonitrile) containing 12.5 M NBD-TEEPO compound, and 16 μL of PBS in which AA (2000 μM, 5.0% ethanol) or tBHP (3000 μM) was dissolved were manually dispensed. The final concentration was 50 μM test compound and 200 μM AA or 300 μM tBHP in DMEM medium (0.5% DMSO, 0.5% acetonitrile).
The reaction mixture was mixed at 37° C., and the fluorescence intensity at an excitation wavelength of 470 nm and a fluorescence wavelength of 530 nm was measured over time every 3 minutes. The AUC was calculated from the fluorescence intensity for 45 minutes in the AA-added system or 60 minutes in the tBHP-added system, and the activity value of each test compound was calculated according to the expression described herein.

[4] = not told; cited from earlier work

| Compound | lipid peroxidation inhibitory effects [1] | cytotoxicity [2] | activity values (lipid peroxidation inhibition) in both AA-added and tBHP-added systems [3] | permeability to blood-retinal barrier (BRB) [4] |
| --- | --- | --- | --- | --- |
| COc1cc(NS(C)(=O)=O)ccc1Nc1c2ccc(C)cc2nc2c1[nH]c1ccccc12 [Compound 80, N-(3-Methoxy-4-((3-methyl-1-10H-indolo[3,2-b]quinolin-11-yl)amino)phenyl)methanesulfonamide] | highest | extremely high | hit compounds |  |
| CN1CC[C@]2(C)c3cc(O)ccc3N(C)[C@H]12 [Compound W, (−)-eseroline fumarate] |  |  |  | highly permeable |
